Experimental findings from patent publication US20220363671A1, “GLUE DEGRADERS AND METHODS OF USE THEREOF” (NOVARTIS AG, priority 2019, published 2022) are described below.

SMILES strings stand for the structures.

Common to all, as to type: cell-based
One assay concerns the target T1, IKZF1 (Homo sapiens, UniProt Q13422+Q96SW2).
T1 construct: expressed in transfected cells
Description: Prolabel quantification of IKZF1 protein levels in GripTite 293 MSR cell line. The conditions noted are these: Pro-label assay; for percent IKZF1 protein reduction at 10 µM: 24 h; for DC50: Ikaros degradation, read-out: IKZF1 EC50. From the text:
(§1) Example 18: Prolabel Quantification of IKZF1, GSPT1, or SALL4 protein levels in GripTite™ 293 MSR Cell line
(§2) The Prolabel system from DiscoverX was used to develop high-throughput and quantitative assays to measure changes in IKZF1, GSPT1, and SALL4 protein levels in response to compounds. The prolabel tag is derived from the alpha fragment of beta galactosidase and has the following protein sequence: mssnslavvlgrrdwenpgvtglnrlaahppfaswrnseeartdrpsqqlrsinge (SEQ ID NO. 1). The complementary fragment of beta-galactosidase (from DiscoverX), is added to the prolabel tag to form an active beta galactosidase enzyme whose activity can be precisely measured. In this way, the levels of a fusion protein with the prolabel tag can be quantified in cell lysates.
(§3) Lentiviral vectors, based on the Invitrogen pLenti6.2/V5 DEST backbone, were constructed that placed the prolabel tag upstream of IKZF1, GSPT1, or SALL4 and expressed the fusion protein from a CMV promoter.
(§4) To ensure moderate and consistent expression of the prolabel fusion proteins across all cells in the population, stable cell lines were constructed from cells expressing a single copy of the construct. Lentivirus packaged with the constructs was made using the Virapower kit from Invitrogen. Strongly adherent 293GT cell, GripTite 293 MSR cells from Thermo Fisher Scientific (Catalog number: R79507), were infected with the virus at low multiplicity of infection and selected by 5 μg/mL blasticidin for 2 weeks.
(§5) The levels of prolabel tagged fusion proteins in compound treated cell lines were measured as follows:
(§6) Day 1, Cells were diluted to 1.0×10^6 cells/mL in normal growth medium. 17.5 μL of cells were plated in each well of a solid white 384 well plate. Plates were incubated overnight in a 37° C. tissue culture incubator.
(§7) Day 2, Serial dilutions of compounds were made in 384 well plates from 10 mM stocks. 15 μL of DMSO was added to each well of a 384 well plate. In the first column, 15 μL of stock compound was added. The solution was mixed and 15 μL was transferred to the next column. This was repeated until 20 two-fold dilutions were prepared. 2.5 μL of the diluted compounds were transferred into 60 μL of cell culture medium in another 384 well plate, and mixed well. 2.5 μL of this mixture was added to the plated cells. The final DMSO concentration was 0.5% and the highest concentration of compound was 50 μM. Plates were incubated overnight (e.g., about 14 h, 18 h, or 24 h) in a 37° C. tissue culture incubator.
Day 3, Plates were removed from the incubator and allowed to equilibrate at room temperature for 30 minutes. Prolabel substrate (DiscoverX PathHunter Prolabel Detection Kit, User manual: 93-0180) was added as described by the manufacturers protocols. Plates were incubated at room temperature for three hours and luminescence was read using an Envision reader (Perkin Elmer) Data was analyzed and visualized using the Spotfire software package.

The target of another assay is T2, SALL4 (Homo sapiens, UniProt Q96SW2+Q9UJQ4).
T2 construct: expressed in transfected cells
T2 sequence (Q9UJQ4 whole entry, species assumed): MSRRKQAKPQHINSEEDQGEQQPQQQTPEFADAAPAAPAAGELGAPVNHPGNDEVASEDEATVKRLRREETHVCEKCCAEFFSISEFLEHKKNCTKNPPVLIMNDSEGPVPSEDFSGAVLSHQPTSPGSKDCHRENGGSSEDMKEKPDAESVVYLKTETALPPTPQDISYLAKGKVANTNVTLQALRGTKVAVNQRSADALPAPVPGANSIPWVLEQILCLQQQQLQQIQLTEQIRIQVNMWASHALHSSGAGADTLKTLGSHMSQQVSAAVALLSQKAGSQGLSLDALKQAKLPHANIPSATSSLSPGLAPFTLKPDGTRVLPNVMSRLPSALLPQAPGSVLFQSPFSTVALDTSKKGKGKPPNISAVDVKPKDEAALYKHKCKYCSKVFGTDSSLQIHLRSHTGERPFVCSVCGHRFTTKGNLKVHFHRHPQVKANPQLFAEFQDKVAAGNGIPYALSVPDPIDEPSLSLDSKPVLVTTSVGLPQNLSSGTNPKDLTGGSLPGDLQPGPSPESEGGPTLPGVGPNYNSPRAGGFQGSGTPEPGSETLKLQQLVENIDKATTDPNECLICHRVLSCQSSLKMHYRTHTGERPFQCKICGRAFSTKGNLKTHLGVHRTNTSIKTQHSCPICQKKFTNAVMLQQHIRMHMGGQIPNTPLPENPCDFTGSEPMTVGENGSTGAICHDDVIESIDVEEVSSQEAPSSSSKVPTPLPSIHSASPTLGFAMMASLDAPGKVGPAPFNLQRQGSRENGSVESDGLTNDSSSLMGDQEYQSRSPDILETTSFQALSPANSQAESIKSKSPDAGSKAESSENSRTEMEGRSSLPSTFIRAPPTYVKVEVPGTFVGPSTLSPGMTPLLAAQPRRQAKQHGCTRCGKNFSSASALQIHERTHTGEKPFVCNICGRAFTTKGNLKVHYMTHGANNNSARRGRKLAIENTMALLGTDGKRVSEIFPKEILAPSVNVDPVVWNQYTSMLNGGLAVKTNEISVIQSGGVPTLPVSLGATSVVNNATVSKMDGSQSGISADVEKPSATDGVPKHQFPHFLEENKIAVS
T2 sequence (Q96SW2 whole entry, species assumed): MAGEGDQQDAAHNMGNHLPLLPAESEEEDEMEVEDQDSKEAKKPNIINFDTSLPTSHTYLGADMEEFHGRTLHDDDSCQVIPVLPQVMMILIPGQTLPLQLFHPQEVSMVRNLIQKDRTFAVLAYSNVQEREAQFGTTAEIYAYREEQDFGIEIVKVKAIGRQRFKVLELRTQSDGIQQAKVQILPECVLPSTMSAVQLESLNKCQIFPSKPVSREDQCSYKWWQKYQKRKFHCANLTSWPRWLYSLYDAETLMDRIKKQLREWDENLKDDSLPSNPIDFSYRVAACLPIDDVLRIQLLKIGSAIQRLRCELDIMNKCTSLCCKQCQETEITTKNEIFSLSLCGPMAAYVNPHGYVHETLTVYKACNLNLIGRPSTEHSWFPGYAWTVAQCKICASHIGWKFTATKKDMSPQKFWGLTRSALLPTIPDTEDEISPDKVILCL
T2 sequence (Q16531 whole entry partner, species assumed): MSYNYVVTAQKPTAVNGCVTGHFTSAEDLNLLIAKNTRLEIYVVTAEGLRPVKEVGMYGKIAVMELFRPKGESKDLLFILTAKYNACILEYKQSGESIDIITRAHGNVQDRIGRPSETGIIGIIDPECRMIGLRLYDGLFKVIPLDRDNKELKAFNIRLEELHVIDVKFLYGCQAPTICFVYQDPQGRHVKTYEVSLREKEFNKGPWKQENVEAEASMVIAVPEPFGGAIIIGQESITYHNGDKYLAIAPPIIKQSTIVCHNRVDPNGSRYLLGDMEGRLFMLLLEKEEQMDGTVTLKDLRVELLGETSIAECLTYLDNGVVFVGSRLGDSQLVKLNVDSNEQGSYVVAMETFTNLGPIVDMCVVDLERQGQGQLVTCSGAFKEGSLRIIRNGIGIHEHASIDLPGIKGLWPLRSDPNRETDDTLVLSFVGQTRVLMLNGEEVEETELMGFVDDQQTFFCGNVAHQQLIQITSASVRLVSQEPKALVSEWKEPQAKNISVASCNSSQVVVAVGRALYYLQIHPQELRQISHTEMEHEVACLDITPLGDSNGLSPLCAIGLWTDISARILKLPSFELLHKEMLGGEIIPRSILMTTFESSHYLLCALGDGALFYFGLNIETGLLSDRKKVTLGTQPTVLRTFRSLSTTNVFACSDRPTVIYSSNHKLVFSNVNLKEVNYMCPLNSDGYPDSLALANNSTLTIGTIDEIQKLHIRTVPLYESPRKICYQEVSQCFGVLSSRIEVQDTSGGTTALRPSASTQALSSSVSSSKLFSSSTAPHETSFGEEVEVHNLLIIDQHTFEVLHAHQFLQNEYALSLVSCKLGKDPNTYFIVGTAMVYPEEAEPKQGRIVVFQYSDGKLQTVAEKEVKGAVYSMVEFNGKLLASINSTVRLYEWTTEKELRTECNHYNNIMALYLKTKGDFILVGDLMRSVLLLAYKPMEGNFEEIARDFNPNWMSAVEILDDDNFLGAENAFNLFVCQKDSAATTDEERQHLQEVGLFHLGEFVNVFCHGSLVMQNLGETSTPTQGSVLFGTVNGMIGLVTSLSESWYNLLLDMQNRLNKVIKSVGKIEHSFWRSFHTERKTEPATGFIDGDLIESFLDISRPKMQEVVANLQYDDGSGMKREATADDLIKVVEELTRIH
The assay is described as follows: Prolabel quantification of SALL4 protein levels in GripTite 293 MSR cell line. The conditions noted are these: Pro-label assay.
From the text: as §1, §2
Lentiviral vectors, based on the Invitrogen pLenti6.2/V5 DEST backbone, were constructed that placed the prolabel tag upstream of IKZF1, GSPT1, or SALL4 and expressed the fusion protein from a CMV promoter. […]
The levels of prolabel tagged fusion proteins in compound treated cell lines were measured as follows: […]
(§8) Day 3, Plates were removed from the incubator and allowed to equilibrate at room temperature for 30 minutes. […] Plates were incubated at room temperature for three hours and luminescence was read using an Envision reader (Perkin Elmer) Data was analyzed and visualized using the Spotfire software package.

In another assay the target is T3, GSPT1 (Homo sapiens, UniProt P15170+Q96SW2).
T3 construct: expressed in transfected cells
T3 sequence (P15170 whole entry, species assumed): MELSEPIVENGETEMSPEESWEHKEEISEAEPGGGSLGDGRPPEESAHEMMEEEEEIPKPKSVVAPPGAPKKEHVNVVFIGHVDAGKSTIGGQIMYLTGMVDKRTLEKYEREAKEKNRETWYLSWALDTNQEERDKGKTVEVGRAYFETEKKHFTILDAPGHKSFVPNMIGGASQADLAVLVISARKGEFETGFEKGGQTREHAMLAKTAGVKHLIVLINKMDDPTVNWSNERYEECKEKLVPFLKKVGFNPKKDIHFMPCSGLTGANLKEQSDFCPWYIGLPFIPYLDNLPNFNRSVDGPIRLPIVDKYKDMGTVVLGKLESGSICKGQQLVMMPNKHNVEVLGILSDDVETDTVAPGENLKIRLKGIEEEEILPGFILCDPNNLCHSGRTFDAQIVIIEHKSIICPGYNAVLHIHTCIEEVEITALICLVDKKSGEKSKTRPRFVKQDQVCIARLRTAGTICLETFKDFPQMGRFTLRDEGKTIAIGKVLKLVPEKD
T3 sequence (Q96SW2 whole entry, species assumed): as the sequence (Q96SW2 whole entry, species assumed) above
T3 sequence (Q16531 whole entry partner, species assumed): as the sequence (Q16531 whole entry partner, species assumed) above
The assay is described as follows: Prolabel quantification of GSPT1 protein levels in GripTite 293 MSR cell line. To be noted: Pro-label assay; for DC50: GSPT1 degradation, read-out: GSPT1 EC50.
From the text: as §1, §2, §3, §4, §5, §6, §7, §8

T1 sequence (Q13422 whole entry, species assumed): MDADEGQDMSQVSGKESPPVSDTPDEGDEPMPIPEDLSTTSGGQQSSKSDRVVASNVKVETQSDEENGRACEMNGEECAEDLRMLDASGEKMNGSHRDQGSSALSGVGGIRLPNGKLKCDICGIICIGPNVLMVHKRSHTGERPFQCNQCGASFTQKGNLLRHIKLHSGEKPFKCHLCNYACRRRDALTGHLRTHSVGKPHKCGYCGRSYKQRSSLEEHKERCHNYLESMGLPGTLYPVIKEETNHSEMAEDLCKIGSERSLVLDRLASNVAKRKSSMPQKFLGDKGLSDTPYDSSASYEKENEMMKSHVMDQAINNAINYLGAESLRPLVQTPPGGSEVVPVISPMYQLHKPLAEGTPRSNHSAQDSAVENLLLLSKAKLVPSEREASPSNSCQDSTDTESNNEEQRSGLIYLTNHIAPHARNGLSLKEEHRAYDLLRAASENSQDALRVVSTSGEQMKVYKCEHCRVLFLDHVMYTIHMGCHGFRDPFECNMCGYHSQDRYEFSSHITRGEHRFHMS
T1 sequence (Q96SW2 whole entry, species assumed): as the sequence (Q96SW2 whole entry, species assumed) above
T1 sequence (Q16531 whole entry partner, species assumed): as the sequence (Q16531 whole entry partner, species assumed) above

`O=C1CCN(c2coc3ccccc23)C(=O)N1` [Compound I-1, 1-(Benzofuran-3-yl)dihydropyrimidine-2,4(1H,3H)-dione]: on IKZF1, the percent IKZF1 protein reduction at 10 µM is 75% and the DC50 is 57 nM.

Consider `C#Cc1ccc2c(N3CCC(=O)NC3=O)coc2c1` [Compound I-2, 1-(6-Ethynylbenzofuran-3-yl)dihydropyrimidine-2,4(1H,3H)-dione], for which, at IKZF1, the percent IKZF1 protein reduction at 10 µM was > 90% and the DC50 worked out at 60 nM.

With `Cc1ccc2occ(N3CCC(=O)NC3=O)c2c1` [Compound I-3, 1-(5-Methylbenzofuran-3-yl)dihydropyrimidine-2,4(1H,3H)-dione], at IKZF1, the percent IKZF1 protein reduction at 10 µM was > 90% and the DC50 turned out to be 16 nM.

Consider `O=C1CCN(c2coc3ccc(I)cc23)C(=O)N1` [Compound I-4, 1-(5-Iodobenzofuran-3-yl)dihydropyrimidine-2,4(1H,3H)-dione], for which, at IKZF1, the percent IKZF1 protein reduction at 10 µM is 60% and the DC50 was 51 nM.

For `O=C1CCN(c2coc3cc(I)ccc23)C(=O)N1` [Compound I-5, 1-(6-Iodobenzofuran-3-yl)dihydropyrimidine-2,4(1H,3H)-dione], the “SALL4 % protein Reduction at 10 μM, 24 h” value at SALL4 was 60%. Besides, on IKZF1, the percent IKZF1 protein reduction at 10 µM was > 90% and the DC50 amounted to 130 nM.

On to `O=C1CCN(c2coc3ccc(NC(=O)Oc4ccccc4)cc23)C(=O)N1` [Compound I-6, Phenyl (3-(2,4-dioxotetrahydropyrimidin-1(2H)-yl)benzofuran-5-yl)carbamate], for which, at IKZF1, the percent IKZF1 protein reduction at 10 µM stood at 75% and the DC50 turned out to be 120 nM.

Take `O=C1CCN(c2cnn3cc(Cl)ccc23)C(=O)N1` [Compound I-7, 1-(6-Chloropyrazolo[1,5-a]pyridin-3-yl)dihydropyrimidine-2,4(1H,3H)-dione]: on IKZF1, the percent IKZF1 protein reduction at 10 µM is > 90% and the DC50 worked out at 6 nM.

As to `O=C1CCN(c2cnc3cc(C4=CCN(Cc5ccccc5)CC4)ccn23)C(=O)N1` [Compound I-8, 1-(7-(1-Benzyl-1,2,3,6-tetrahydropyridin-4-yl)imidazo[1,2-a]pyridin-3-yl)dihydropyrimidine-2,4(1H,3H)-dione], at IKZF1, the percent IKZF1 protein reduction at 10 µM is > 90% and the DC50 amounted to 41 nM.

In the case of `CC(C)(C)c1ccc(C(=O)N2CC=C(c3ccn4c(N5CCC(=O)NC5=O)cnc4c3)CC2)cc1` [Compound I-9, 1-(7-(1-(4-(tert-Butyl)benzoyl)-1,2,3,6-tetrahydropyridin-4-yl)imidazo[1,2-a]pyridin-3-yl)dihydropyrimidine-2,4(1H,3H)-dione], on GSPT1, the “GSPT1 % protein reduction at 10 μM, 24 h” value amounted to 80% and the DC50 is 170 nM.

Turning to `O=C1CCN(c2cnc3ccc(C4CCN(Cc5ccccc5)CC4)cn23)C(=O)N1` [Compound I-10, 1-(6-(1-Benzylpiperidin-4-yl)imidazo[1,2-a]pyridin-3-yl)dihydropyrimidine-2,4(1H,3H)-dione], the “SALL4 % protein Reduction at 10 μM, 24 h” value on SALL4 came out at 60%. Besides, on GSPT1, the “GSPT1 % protein reduction at 10 μM, 24 h” value worked out at 80% and the DC50 amounted to 170 nM.

On to `CN(C)CC#Cc1ccc2c(N3CCC(=O)NC3=O)coc2c1` [Compound I-11, 1-(6-(3-(dimethylamino)prop-1-yn-1-yl)benzofuran-3-yl)dihydropyrimidine-2,4(1H,3H)-dione], for which, on IKZF1, the percent IKZF1 protein reduction at 10 µM was > 90% and the DC50 turned out to be 46 nM.

`O=C1CCN(c2coc3cc(C(=O)NCc4ccccc4)ccc23)C(=O)N1` [Compound I-12, N-benzyl-3-(2,4-dioxotetrahydropyrimidin-1(2H)-yl)benzofuran-6-carboxamide]: on IKZF1, the DC50 is > 20000 nM.

`Cc1ccc2c(N3CCC(=O)NC3=O)noc2c1` [Compound I-13, 1-(6-Methylbenzo[d]isoxazol-3-yl)dihydropyrimidine-2,4(1H,3H)-dione]: at IKZF1, the percent IKZF1 protein reduction at 10 µM is > 90% and the DC50 amounted to 6 nM.

In the case of `O=C1CCN(c2noc3ccc(Cl)cc23)C(=O)N1` [Compound I-14, 1-(5-Chlorobenzo[d]isoxazol-3-yl)dihydropyrimidine-2,4(1H,3H)-dione], on IKZF1, the percent IKZF1 protein reduction at 10 µM was > 90% and the DC50 was 25 nM.

Consider `Cc1ccc(CCOc2ccc3c(N4CCC(=O)NC4=O)noc3c2)cc1` [Compound I-15, 1-(6-(4-Methylphenethoxy)benzo[d]isoxazol-3-yl)dihydropyrimidine-2,4(1H,3H)-dione], for which, at IKZF1, the percent IKZF1 protein reduction at 10 µM came out at 80% and the DC50 came to 630 nM.

Consider `O=c1ccn(-c2cnc3ccc(C4CCN(Cc5ccccc5)CC4)cc3c2)c(=O)[nH]1` [Compound I-16, 1-(6-(1-benzylpiperidin-4-yl)quinolin-3-yl)pyrimidine-2,4(1H,3H)-dione], for which the DC50 at IKZF1 was > 20000 nM.

For the compound `O=c1ccn(-c2cnc3cc(C4=CCN(Cc5ccccc5)CC4)ccn23)c(=O)[nH]1` [Compound I-17, 1-(7-(1-Benzyl-1,2,3,6-tetrahydropyridin-4-yl)imidazo[1,2-a]pyridin-3-yl)pyrimidine-2,4(1H,3H)-dione], at IKZF1, the percent IKZF1 protein reduction at 10 µM worked out at 80% and the DC50 worked out at 430 nM.

In turn, `O=c1ccn(-c2cnc3cc(Br)ccn23)c(=O)[nH]1` [Compound I-18, 1-(7-Bromoimidazo[1,2-a]pyridin-3-yl)pyrimidine-2,4(1H,3H)-dione] returned a percent IKZF1 protein reduction at 10 µM on IKZF1 of 40%.
